According to patent US20080045547A1, “Salts And Co-Crystals of Pyrazolopyrimidine Compounds, Compositions Thereof And Methods For Their Production And Use” (priority 2006, published 2008):
Several values for one entry are separate records, joined by “and”; a condition that tells them apart may be missing. Equal values may be shown once. Entries after “also recorded” stand apart in the source; their conditions may differ. Where a name gives a salt, the structure may show the parent alone.

Assays:
[1] = Equilibrium aqueous solubility from solid; type: physicochemical; conditions: H20, room temperature overnight; for solubility: water, thermodynamic from solid
Protocol: Samples of the ocinaplon salts shown above were evaluated for equilibrium aqueous solubility from solid. Duplicate samples of ocinaplon were accurately weighed and diluted to 1 ml with water to 6.83 mg/ml and 6.43 mg/ml. Duplicate samples of Ocinaplon di HCl salt were accurately weighed and diluted to 1 ml with water to 5.5 mg/ml and 6.0 mg/ml. Ocinaplon di HBr salt was accurately weighed and diluted to 1 ml with water to 6.1 mg/ml and 5.8 mg/ml. Ocinaplon disulfate salt was accurately weighed and diluted to 1 ml with water to 7.5 mg/ml and 6.5 mg/ml. Any change in pH of the water following sample addition was recorded. After equilibration at room temperature overnight the solutions were filtered and solute concentration determined by fast gradient HPLC with UV/VIS/MS detection with reference to 5, 10, 50, 100 and 250 μM analytical standards. Prior to sample filtration, filters were primed with 600 μl of sample to resolve potential adsorption problems. Both sample replicates were collected through the primed filter. Duplicate determinations were made in all cases.

[2] = Pharmacokinetics of different salt forms of ocinaplon after a single oral dose; type: in vivo; conditions: male beagle dogs; for Tmax / half-life / AUC(0-inf) / AUC(0-t) / Cmax: dog, plasma, single oral dose 30 mg Base/kg, 0.5% methylcellulose suspension, mean (CV %), N = 5; for Cmax of ocinaplon relative to an equivalent amount of the free base / AUC of ocinaplon relative to an equivalent amount of the free base / variability in plasma levels of ocinaplon compared to the free base / variability in the AUC (CV %) compared to the free base: oral 30 mg free base/kg; for AUC(0-inf) / AUC(0-t) / Cmax: male, beagle, po
Protocol: The test compounds were prepared in 0.5% methylcellulose. The target concentrations of the free base and HBr salt were 1.0 and 1.34 mg/mL (equivalent to 1 mg of the free base), respectively. The liquid suspensions were administered via oral gavage. Prior to removing the gavage tube, the tube was flushed with approximately 5 mL of water.
Blood (approximately 2 mL) was collected from a jugular vein via syringe and needle and transferred into tubes containing K2EDTA anticoagulant predose and at 0.5, 1, 2, 3, 4, 6, 8, 12, and 24 hours postdose. Blood was maintained on wet ice, in chilled Kryoracks, or at approximately 5° C. prior to centrifugation to obtain plasma. Centrifugation began within 1 hour of collection. Plasma was placed on dry ice prior to storage at approximately −70° C. Plasma samples, remaining test compounds, and remaining dose formulations were shipped on dry ice to the analysis site and stored at approximately −70° C. before and after analysis. Samples were analyzed using an LC/MS/MS method. Plasma concentration-time data for each dog and formulation were analyzed using a noncompartmental model assumption with WinNonlin, version 4.1 (Pharsight Corporation, Mountain View, Calif.). All calculations were based on the nominal times as actual sample collection times departed minimally from the schedule times.
The pharmacokinetic parameters of different pyrazolopyrimidine acid salts vary in an apparently salt and compound dependent fashion. This is illustrated by a comparison of the pharmacokinetic properties of different acid salts of the pyrazolopyrimidine, ocinaplon. This study was performed in a manner similar to the study described in Example 9 hereinabove. The concentrations of the HCl, HBr and disulfate salts of ocinaplon were 3.72 mg/mL, 4.61 mg/mL and 4.95 mg/mL, respectively. All concentrations were calculated to be 3.0 mg free base/mL; the dose volume was […]. […] […] These findings exemplify and underscore the differences in pharmacokinetic profiles among these three exemplary salts of ocinaplon.

O=C(c1ccccn1)c1cnn2c(-c3ccncc3)ccnc12 [Ocinaplon disulfate salt]
Equilibrium Aqueous Solubility from Solid [1]: 10.6 mM and 5.3 mg/ml
Tmax ([2]; 30 mg/kg): 48 min
half-life ([2]; 30 mg/kg): 57 min
Cmax of ocinaplon relative to an equivalent amount of the free base [2]: more than two-fold
AUC(0-inf) ([2]; 30 mg/kg): 46400 ng·h/mL
AUC(0-t) ([2]; 30 mg/kg): 46300 ng·h/mL
Cmax ([2]; 30 mg/kg): 14800 ng/mL

Cl.Cl.O=C(c1ccccn1)c1cnn2c(-c3ccncc3)ccnc12 [Ocinaplon di HCl salt]
solubility [1]: 12600 µM and 4700 µg/mL
Tmax ([2]; 30 mg/kg): 66 min
half-life ([2]; 30 mg/kg): 63 min
AUC of ocinaplon relative to an equivalent amount of the free base [2]: almost twice as high
Cmax of ocinaplon relative to an equivalent amount of the free base [2]: more than two-fold
variability in plasma levels of ocinaplon compared to the free base [2]: lower variability
variability in the AUC (CV %) compared to the free base [2]: much less variability
AUC(0-inf) ([2]; 30 mg/kg): 57300 ng·h/mL
AUC(0-t) ([2]; 30 mg/kg): 57100 ng·h/mL
Cmax ([2]; 30 mg/kg): 15000 ng/mL

Br.Br.O=C(c1ccccn1)c1cnn2c(-c3ccncc3)ccnc12 [Ocinaplon di HBr]
solubility [1]: 11500 µM and 5300 µg/mL
Tmax ([2]; 30 mg/kg): 54 min
half-life ([2]; 30 mg/kg): 49.8 min
AUC of ocinaplon relative to an equivalent amount of the free base [2]: did not differ
Cmax of ocinaplon relative to an equivalent amount of the free base [2]: more than two-fold; also recorded: approximately twice
variability in plasma levels of ocinaplon compared to the free base [2]: lower variability
variability in the AUC (CV %) compared to the free base [2]: dramatically less
AUC(0-t) ([2]; 30 mg Base/kg): 38000 ng·h/mL
AUC(0-inf) ([2]; 30 mg/kg): 38100 ng·h/mL
Cmax ([2]; 30 mg/kg): 13600 ng/mL
